Measured values: US20210214683A1, “METHODS FOR ISOLATING TUMOR-SPECIFIC IMMUNE CELLS FROM A SUBJECT FOR ADOPTIVE CELL THERAPY AND CANCER VACCINES” (CRITITECH, INC., priority 2018, published 2021)
Where “and” joins values, the source holds several entries; their conditions need not be identical. Identical values can stand only once. Marks after values point to notes of the source that are not given here.

Key:
[1] = system: human renal cell adenocarcinoma (786-O cell line); test: Rat 786-O xenograft: H&E and immunohistochemical evaluation (viable carcinoma size, necrosis, CD11b/CD68 infiltrate, TLS); format: in vivo, Sprague-Dawley Rag2; Il2rg null (SRG) rat
Excerpt: Tissue Collection: Primary Tumor (Inoculation site)—A final tumor measurement was taken prior to excision. Tumors were weighed after excision. Approximately ½ of each tumor (based on visual assessment) was flash frozen in 2-methylbutane on dry ice, the tumor piece was weighed when possible before it is flash frozen. The remaining was fixed in 10% neutral buffered formalin. Tumors were also collected from animals not reaching enrollment volume. Secondary Tumors—Any organ with visible tumors were collected and fixed in 10% neutral buffered formalin. Formalin fixed tissues were stored at room temperature. Frozen tissues were stored at −80° C. All tissue was stored for up to 3 months. Pictures of all tumors; primary and secondary if present, were taken.
Microscopic Examination: Tissues fixed with 10% NBF were embedded in paraffin. Each tumor was cut into 2-3 pieces and embedded and sectioned together.

[2] = system: UM-UC-3 bladder cancer cell line; test: Human bladder cancer (UM-UC-3) mouse xenograft study: tumor volume; format: in vivo, Hsd:Athymic Nude-Foxn1nu nude mice; settings: Docetaxel IV 30 mg/kg, 3 cycles
Experimental: (§1) Tumor volume was determined with calipers. […] Animals were weighed 2×/week.
At day 18 after tumor implant, when average tumor size was between 50-325 mm^3, animals were sorted into five groups with equal average tumor sizes and were treated as shown in Table 25 below.
The second treatments (2nd cycle) occurred 7 days following first treatment (1st cycle) and third treatments (3rd cycle) occurred 14 days following the first treatment. The docetaxel solution IV was administered via the tail vein.
Vehicle (Control): Diluted 1 ml of the 1% Polysorbate 80/8% Ethanol in normal saline (0.9% Sodium Chloride for Injection) reconstitution solution with 1.5 mL of normal saline (0.9% Sodium Chloride for Injection, USP). […] Vigorously hand shook the vial with inversions for 1 minute. […] Allowed the suspension to sit undisturbed for at least 5 minutes to reduce entrapped air and foam. […] Vortexed to mix.

[3] = UM-UC-3 mouse xenograft study: body weight and peripheral neuropathy; format: in vivo, Hsd:Athymic Nude-Foxn1nu nude mice; settings: Docetaxel IV 3 cycles
Experimental: as §1

[4] = system: UM-UC-3 bladder cancer cell line; test: UM-UC-3 mouse xenograft study: H&E histopathology (viable carcinoma size on slide, necrosis, TLS); format: in vivo, Hsd:Athymic Nude-Foxn1nu nude mice
[5] = system: UM-UC-3 bladder cancer cell line; test: UM-UC-3 mouse xenograft study: immunohistochemistry (F4/80, CD68 macrophage infiltrate, CD45R); format: in vivo, Hsd:Athymic Nude-Foxn1nu nude mice; settings: IV Docetaxel 3 cycles
Renca tumor cells [6] = test: Renca syngeneic xenograft study: primary tumor volume (groups 1-7); format: in vivo, female BALB/c mice; settings: IV docetaxel Day 1 (10 mg/kg) and Day 11 (5 mg/kg)
Experimental: (§2) The schedule in Table 39 was followed.
All treatments were initiated on the same day.
(§3) Cell Injection Volume: 0.1 mL/mouse. Age at Start Date: 8 to 12 weeks. […] Body Weight: 5/2 then tiwk to end. Caliper Measurement: tiwk to end. Double caliper measurements were performed for Groups 8-10. […] The group was not euthanized and recovery was allowed.
(§4) Endpoints: Groups 1-7: Endpoint TGI. Animals were monitored as a group.

Renca tumor cells [7] = test: Renca syngeneic xenograft study: untreated secondary tumor growth (groups 8-10); format: in vivo, female BALB/c mice; settings: IV docetaxel; second Renca injection day 15
Experimental: as §2, §3, §4

[8] = system: immune cells in the blood; test: Renca syngeneic xenograft study: flow cytometry of blood (CD45+, CD4+, CD8+, Treg, MDSC, M1, M2); format: in vivo, female BALB/c mice; settings: IV Docetaxel, individual animals
Experimental: Blood Collection: Collected full volume blood by terminal cardiac puncture under isoflurane anesthesia. Processed blood for: Whole Blood: anti-coagulant—K2EDTA, preservation—Cooled 4° C., shipping condition—4° C. (wet ice). Retained at CRL-NC for flow cytometry. See Flow panel in Table 40 below.
(§5) Peripheral blood and tumor tissue were collected for analysis via flow cytometry. Cell types analyzed included T-Cells: CD4+, CD8+ (Tumor Suppression); Treg (Tumor Promotion); M1 Macrophages (Tumor Suppression); M2 Macrophages (Tumor Promotion); and M2 Macrophages (Tumor Promotion).

[9] = system: immune cells in tumor tissue; test: Renca syngeneic xenograft study: flow cytometry of tumor tissue; format: in vivo, female BALB/c mice; settings: IV docetaxel, individual animal
Experimental: Organ Collection: Tumor (divide into 2 parts). […] Sent to laboratory for IHC staining. Part 2: preservation—processed to single cell suspension, shipping condition—4° C. (wet ice). Retained at CRL-NC for flow cytometry. See Flow panel in Table 40 below. Tumor preservation for early euthanasia in Groups 2-10: Excised tumor and surrounding area from the mammary fat pad area (cranial) to just past tumor (caudal). The region included the inguinal lymph node. Sectioned this sample every 4 mm from the cranial to caudal end and enclosed in separate cassettes labeled in order.
as §5

[10] = IV Docetaxel 3 cycles, 2 animals

CC(=O)O[C@@]12CO[C@@H]1C[C@H](O)[C@@]1(C)C(=O)[C@H](O)C3=C(C)[C@@H](OC(=O)[C@H](O)[C@@H](NC(=O)OC(C)(C)C)c4ccccc4)C[C@@](O)([C@@H](OC(=O)c4ccccc4)[C@H]21)C3(C)C [Doce]
Number of animals with <5% of tissue showing necrosis ([1]; IV Doce, 2 animals): 2
Number of animals with Mild lymphohistiocytic infiltrate density ([1]; IV Doce, 2 animals, H/E and CD11b staining, semi quantitative): 2

CC(=O)O[C@@]12CO[C@@H]1C[C@H](O)[C@@]1(C)C(=O)[C@H](O)C3=C(C)[C@@H](OC(=O)[C@H](O)[C@@H](NC(=O)OC(C)(C)C)c4ccccc4)C[C@@](O)([C@@H](OC(=O)c4ccccc4)[C@H]21)C3(C)C [Docetaxel, docetaxel]
efficacy in relation to initial tumor size [2]: somewhat effective at treating small tumors, but not very effective in treating large tumors
tumor volumes over the study (61 days), after an initial decrease [2]: subsequently increased
initial animal weight loss compared with nDoce IT 1, 2, 3 cycles [3]: generally greater
peripheral neuropathy compared with nDoce IT 3 cycles [3]: greater signs of peripheral neuropathy
General histological observations (H&E) ([4]; Docetaxel Solution IV 3 cycles): many viable appearing tumor masses with some macrophage and occasional lymphocytic response along with some tumor necrosis
Maximum size of viable invasive carcinoma on the slide >10 mm (animals) [4, 10]: 2*
Number of animals with 11-50% of tumor showing necrosis [4, 10]: 1
Number of animals with 50-90% of tumor showing necrosis [4, 10]: 1
Maximum tumor size on slide (mm) ([4]; IV Docetaxel 3 cycles, individual animals B1, B3): 15 mm and 11 mm
maximum dimension of tumor mass on the slide, individual cases ([4]; Intravenous Docetaxel 3 cycles, 2 cases): 11 mm and 15 mm
geographic tumor cell necrosis, share of the tumor area, individual cases ([4]; Intravenous Docetaxel 3 cycles, cases B1, B3): 11-50% and 50-90%
F4/80 immunohistochemistry observation (FIG. 87) [5]: Very little tumor cell destruction and few scattered mononuclear immune cells among vast number of viable tumor cells
Macrophage infiltrate density: Mild (animals) ([5]; 2 animals, H&E and CD68): 2
histology compared with the vehicle control (FIG. 93) ([1]; Docetaxel (IV) 3 cycles, female rat): no difference
Number of animals with residual viable carcinoma >10 mm ([1]; IV docetaxel, 2 animals, maximum dimension on slide): 2
residual viable carcinoma nodules, size on the slide ([1]; both IV docetaxel animals (3 cycles)): greater than 10 mm
tumor volume compared to vehicle (Renca tumor cells [6]): No difference in tumor volume
growth rate of the secondary Renca tumors (Renca tumor cells [7]): did not reduce the growth rate of the secondary Renca tumors
CD45 (% of Live) [8]: 97 % of Live
CD45 Count [8]: 1200000
MDSC Count [8]: 1000000
Treg Count [8]: 1300 and 870
CD8 (% of CD45) [9]: 0.75% and 0.5% and 0.28% and 0.31% (2×) and 0.061% and 0.32% and 0.45% and 0.81% and 0.33%
CD8 Count [9]: 33 and 40 and 26 and 9 and 36 and 270
CD45 (% of Live) [9]: 73%
Conv CD4 (% of CD45) [9]: 0.44% and 0.16% and 0.58% and 0.62% and 0.59%
Conv CD4 Count [9]: 54 and 93 and 140 and 23 and 50 and 670
M1 Mac Count [9]: 460 and 700
M2 Mac (% of CD45) [9]: 28%
MBSC (% of CD45) [9]: 25.1% and 32.8% and 42.5% and 44% and 83.3% and 20% and 70.4% and 37.3% and 10.4%
Treg (% of CD45) [9]: 0.55% and 0.32% and 0.62% and 0.16% and 0.54% and 0.21% and 0.42% and 0.6%
Treg Count [9]: 69 and 44 and 30 and 23 and 17 and 520
